Data from patent EP4342905B1, “1,N6-ETHENOADENOSINE DERIVATIVES FOR CANCER TREATMENT” (PHILIPPS-UNIVERSITÄT MARBURG, priority 2022, dated 2024).
Where a name gives a salt, the structure may show the parent alone.

Columns and labels:
[1] = logPOW determination, water/1-octanol distribution with UV/VIS readout; format: physicochemical; conditions: 1 h stirring, room temperature (23 °C), ratio of maximal UV absorbances; for logP at 1 h: read-out: logPOW (measured)
Procedure: All logPOW values reported herein are determined as follows: 2 mg of the compound to be measured are distributed in a 250 ml beaker between a two-phase mixture of water (50 ml) and 1-octanol (50 ml) and stirred for 1 h on a magnetic stirrer at room temperature (23 °C). After separation of the layers, 3 ml of each phase are removed and transferred into a 3.5 ml quartz cuvette (10 x 10 mm, 3500 µl; Hellma, Darmstadt, Germany) and measured on a UV/VIS spectrometer (Cary 50, Varian, Darmstadt, Germany). From the ratio of maximal absorbances in both layers (λmax) the corresponding log10POW values are determined.

Panc-1 cells = experiment: CellTiter-Glo Luminescent Cell Viability Assay, Panc-1 as PDAC model; format: cell-based, human; conditions: for IC50: Panc-1 cells, 72 h compound incubation, mean ± SD of at least three independent biological repeats; for activity against human Panc-1 pancreatic carcinoma cells compared to gemcitabine: comparison with gemcitabine
Procedure: The biological antitumor-activity of adenosine derivatives according to Formula I towards pancreatic ductal adenocarcinoma (PDAC) was evaluated by utilizing the established cell line Panc-1 as a PDAC model by applying the CellTiter-Glo® Luminescent Cell Viability Assay (Promega) after 72 h of compound incubation. Gemcitabine (100 µM) was used as a positive control. To analyze the cytotoxic efficacy in Panc-1 cells, dose-response curves were generated for each compound, starting from a concentration of 100 µM with serial dilution of 1:3. IC50 values are shown as arithmetic means of at least three independent biological repeats in following Table 1. Table 1: IC50-Values for the inhibition of PADC by adenosine and 1,N6-ethenoadenosine derivatives (with the respective standard deviations SD)

logPOW (measured) [1]	logP at 1 h [1]	IC50 (Panc-1 cells; Homo sapiens)	SMILES	activity against human Panc-1 pancreatic carcinoma cells compared to gemcitabine (Panc-1 cells)	IC50 (Panc-1 cells)
2.82	2.82	14.58 ± 0.14 µM	CCCCCCCC1(CCCCCCC)O[C@@H]2[C@H](O1)[C@@H](CO)O[C@H]2n1cnc2c(N)ncnc21 [Compound 2a, ((3aR,4R,6R,6aR)-6-(6-amino-9H-purin-9-yl)-2,2-diheptyltetrahydrofuro[3,4-d][1,3]dioxol-4-yl)methanol]	more active	
3.86	3.86		CCCCCCCCC1(CCCCCCCC)O[C@@H]2[C@H](O1)[C@@H](CO)O[C@H]2n1cnc2c(N)ncnc21 [Compound 2b, ((3aR,4R,6R,6aR)-6-(6-amino-9H-purin-9-yl)-2,2-dioctyltetrahydrofuro[3,4-d][1,3]dioxol-4-yl)methanol]		
2.40	2.4	17.1 ± 3.14 µM	CCCCCCCC1(CCCCCCC)O[C@@H]2[C@H](O1)[C@@H](CO)O[C@H]2n1cnc2c1ncn1ccnc21.Cl [Compound 4a, ((3aR,4R,6R,6aR)-6-(3H-imidazo[2,1-i]purin-3-yl)-2,2-diheptyltetrahydrofuro[3,4-d][1,3]dioxol-4-yl)methanol Hydrochloride]		
2.57	2.57	16.2 ± 1.35 µM	CCCCCCCCC1(CCCCCCCC)O[C@@H]2[C@H](O1)[C@@H](CO)O[C@H]2n1cnc2c1ncn1ccnc21 [Compound 4b, ((3aR,4R,6R,6aR)-6-(3H-imidazo[2,1-i]purin-3-yl)-2,2-dioctyitetrahydrofuro[3,4-d][1,3]dioxol-4-yl)methanol Hydrochloride]	more active	
1.67	1.67	23.1 ± 3.6 µM	Cl.OC[C@H]1O[C@@H](n2cnc3c2ncn2ccnc32)[C@@H]2OC3(CCCCCCCCCCCCCC3)O[C@@H]21 [Compound 5, ((3a'R,4'R,6'R,6a'R)-4'-(3H-imidazo[2,1-i]purin-3-yl)tetrahydrospiro[cyclopentadecane-1,2'-furo[3,4-d][1,3]dioxol]-6'-yl)methanol Hydrochloride]		

SMILES	logPOW (measured) [1]	logP at 1 h [1]	IC50 (Panc-1 cells; Homo sapiens)	activity against human Panc-1 pancreatic carcinoma cells compared to gemcitabine (Panc-1 cells)	IC50 (Panc-1 cells)
CCCCCCCCCCCCCC1(C)O[C@@H]2[C@H](O1)[C@@H](CO)O[C@H]2n1cnc2c(N)ncnc21 (stereo partly drawn) [Compound 2c, ((2R/2S,3aR,4R,6R,6aR)-6-(6-amino-9H-purin-9-yl)-2-methyl-2-tridecyltetrahydrofuro[3,4-d][1,3]dioxol-4-yl)methanol]	2.83				
CCCCCCCCCCCCCC1(CC)O[C@@H]2[C@H](O1)[C@@H](CO)O[C@H]2n1cnc2c(N)ncnc21 (stereo partly drawn) [Compound 2d, ((2R/2S,3aR,4R,6R,6aR)-6-(6-amino-9H-purin-9-yl)-2-ethyl-2-tridecyltetrahydrofuro[3,4-d][1,3]dioxol-4-yl)methanol]	3.60			more active	14.6 ± 0.69 µM
CCCCCCCCCCCCCC1(C)O[C@@H]2[C@H](O1)[C@@H](CO)O[C@H]2n1cnc2c(N)ncnc21.Cl (stereo partly drawn) [Compound 4c, ((2R/2S,3aR,4R,6R,6aR)-6-(6-amino-9H-purin-9-yl)-2-methyl-2-tridecyltetrahydrofuro[3,4-d][1,3]dioxol-4-yl)methanol Hydrochloride]	2.75			more active	30.6 ± 2.53 µM
CCCCCCCCCCCCCC1(CC)O[C@@H]2[C@H](O1)[C@@H](CO)O[C@H]2n1cnc2c1ncn1ccnc21.Cl (stereo partly drawn) [Compound 4d, ((2R/2S,3aR,4R,6R,6aR)-6-(3H-imidazo[2,1-i]purin-3-yl)-2-ethyl-2-tridecyltetrahydrofuro[3,4-d][1,3]dioxol-4-yl)methanol Hydrochloride]	2.29				16 ± 4.31 µM
